Laboratory results from PubChem BioAssay AID2060343 (Molecular Pharmacology Branch, DTP, NCI, 2025).

System: 138582-337-R-J1-PDC spheroids with HUVEC/MSC, viability
Assay: Anticancer human tumor 138582-337-R-J1-PDC patient-derived Merkel cell tumor cell line growth inhibition [IpAb]
Settings: for IC50: curve of first compound; for viability, T/C: stronger effect = lower value
Outline: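 Combinations with ipatasertib or abemaciclib were tested on tumour spheroids holding HUVEC (25%) and MSC (15%) alongside 60% malignant cells. Top concentration was at or near clinical Cmax (10 microM if undefined), descending in half-log steps.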

[1] = second compound 0.1 µM, first compound 0.0316 µM
[2] = second compound 0.1 µM, first compound 0.1 µM
[3] = second compound 0.1 µM, first compound 0.316 µM
[4] = second compound 0.1 µM, first compound 1 µM
[5] = second compound 0.1 µM, first compound 3.16 µM
[6] = second compound 0.1 µM, first compound 10 µM
[7] = second compound 0.316 µM, first compound 0.0316 µM
[8] = second compound 0.316 µM, first compound 0.1 µM
[9] = second compound 0.316 µM, first compound 0.316 µM
[10] = second compound 0.316 µM, first compound 1 µM
[11] = second compound 0.316 µM, first compound 3.16 µM
[12] = second compound 0.316 µM, first compound 10 µM
[13] = second compound 1 µM, first compound 0.0316 µM
[14] = second compound 1 µM, first compound 0.1 µM
[15] = second compound 1 µM, first compound 0.316 µM
[16] = second compound 1 µM, first compound 1 µM
[17] = second compound 1 µM, first compound 3.16 µM
[18] = second compound 1 µM, first compound 10 µM
[19] = second compound 3.16 µM, first compound 0.0316 µM
[20] = second compound 3.16 µM, first compound 0.1 µM
[21] = second compound 3.16 µM, first compound 0.316 µM
[22] = second compound 3.16 µM, first compound 1 µM
[23] = second compound 3.16 µM, first compound 3.16 µM
[24] = second compound 3.16 µM, first compound 10 µM
[25] = second compound 10 µM, first compound 0.0316 µM
[26] = second compound 10 µM, first compound 0.1 µM
[27] = second compound 10 µM, first compound 0.316 µM
[28] = second compound 10 µM, first compound 1 µM
[29] = second compound 10 µM, first compound 3.16 µM
[30] = second compound 10 µM, first compound 10 µM
[31] = second compound 0.1 µM, first compound 0.00949 µM
[32] = second compound 0.1 µM, first compound 0.03 µM
[33] = second compound 0.1 µM, first compound 0.0949 µM
[34] = second compound 0.1 µM, first compound 0.3 µM
[35] = second compound 0.316 µM, first compound 0.00949 µM
[36] = second compound 0.316 µM, first compound 0.03 µM
[37] = second compound 0.316 µM, first compound 0.0949 µM
[38] = second compound 0.316 µM, first compound 0.3 µM
[39] = second compound 1 µM, first compound 0.00949 µM
[40] = second compound 1 µM, first compound 0.03 µM
[41] = second compound 1 µM, first compound 0.0949 µM
[42] = second compound 1 µM, first compound 0.3 µM
[43] = second compound 3.16 µM, first compound 0.00949 µM
[44] = second compound 3.16 µM, first compound 0.03 µM
[45] = second compound 3.16 µM, first compound 0.0949 µM
[46] = second compound 3.16 µM, first compound 0.3 µM
[47] = second compound 10 µM, first compound 0.00949 µM
[48] = second compound 10 µM, first compound 0.03 µM
[49] = second compound 10 µM, first compound 0.0949 µM
[50] = second compound 10 µM, first compound 0.3 µM
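Also: spheroids exposed to compounds for seven days.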
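For viability, T/C in this document: 100% = DMSO vehicle control viability.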

With `C=CC(=O)N1CCN(c2nc(=O)n(-c3c(C)ccnc3C(C)C)c3nc(-c4c(O)cccc4F)c(F)cc23)C(C)C1` (stereo not given) + CC(C)NCC(C(=O)N1CCN(c2ncnc3c2C(C)CC3O)CC1)c1ccc(Cl)cc1 the IC50 (second compound 0.1 µM) was > 10000 nM, the IC50 (second compound 0.316 µM) was > 10000 nM and the IC50 (second compound 1 µM) was > 10000 nM. The IC50 (second compound 3.16 µM) was > 10000 nM, the IC50 (second compound 10 µM) was 31.6 nM and the viability, T/C [1] was 90.2%. For the same compound, the viability, T/C [2] was 95.5%, the viability, T/C [3] was 91.4% and the viability, T/C [4] was 101%. The viability, T/C [5] was 115%, the viability, T/C [6] was 168% and the viability, T/C [7] was 90.6%. The viability, T/C [8] was 86.2%, the viability, T/C [9] was 83.5% and the viability, T/C [10] was 90.1%. It also gave a viability, T/C [11] of 105%, a viability, T/C [12] of 132% and a viability, T/C [13] of 71.9%. For the same compound, the viability, T/C [14] was 66.6%, the viability, T/C [15] was 71.4% and the viability, T/C [16] was 74.9%. The viability, T/C [17] was 86.6%, the viability, T/C [18] was 77.5% and the viability, T/C [19] was 57.1%. For the same compound, the viability, T/C [20] was 56.8%, the viability, T/C [21] was 59.4% and the viability, T/C [22] was 63.4%. For the same compound, the viability, T/C [23] was 69%, the viability, T/C [24] was 54% and the viability, T/C [25] was 38.7%. It also gave a viability, T/C [26] of 49.9%, a viability, T/C [27] of 47.9% and a viability, T/C [28] of 47.6%. For the same compound, the viability, T/C [29] was 52.4% and the viability, T/C [30] was 32.3%.

In the case of `CC(=O)c1c(C)c2cnc(Nc3ccc(N4CCNCC4)cn3)nc2n(C2CCCC2)c1=O` + CC(C)NCC(C(=O)N1CCN(c2ncnc3c2C(C)CC3O)CC1)c1ccc(Cl)cc1, the IC50 (second compound 0.1 µM) is reported as > 300 nM, the IC50 (second compound 0.316 µM) is reported as > 300 nM and the IC50 (second compound 1 µM) is reported as > 300 nM. The IC50 (second compound 3.16 µM) was > 300 nM, the IC50 (second compound 10 µM) was < 0.949 nM and the viability, T/C (second compound 0.1 µM, first compound 0.000949 µM) was 101%. It also gave a viability, T/C (second compound 0.1 µM, first compound 0.003 µM) of 98.6%, a viability, T/C [31] of 92.3% and a viability, T/C [32] of 94.3%. It also gave a viability, T/C [33] of 89.2%, a viability, T/C [34] of 103% and a viability, T/C (second compound 0.316 µM, first compound 0.000949 µM) of 76.2%. The viability, T/C (second compound 0.316 µM, first compound 0.003 µM) was 74.1%, the viability, T/C [35] was 78.6% and the viability, T/C [36] was 80.7%. It also gave a viability, T/C [37] of 66.5%, a viability, T/C [38] of 80.6% and a viability, T/C (second compound 1 µM, first compound 0.000949 µM) of 65.5%. It also gave a viability, T/C (second compound 1 µM, first compound 0.003 µM) of 62.5%, a viability, T/C [39] of 59.6% and a viability, T/C [40] of 52.8%. For the same compound, the viability, T/C [41] was 65%, the viability, T/C [42] was 64.3% and the viability, T/C (second compound 3.16 µM, first compound 0.000949 µM) was 51%. It also gave a viability, T/C (second compound 3.16 µM, first compound 0.003 µM) of 54.5%, a viability, T/C [43] of 54% and a viability, T/C [44] of 47.1%. It also gave a viability, T/C [45] of 61.6%, a viability, T/C [46] of 47% and a viability, T/C (second compound 10 µM, first compound 0.000949 µM) of 45.1%. It also gave a viability, T/C (second compound 10 µM, first compound 0.003 µM) of 44.3%, a viability, T/C [47] of 45% and a viability, T/C [48] of 38.9%. It also gave a viability, T/C [49] of 37.8% and a viability, T/C [50] of 44.1%.

For `CC(C)(C)c1cnc(CSc2cnc(NC(=O)C3CCNCC3)s2)o1` + CC(C)NCC(C(=O)N1CCN(c2ncnc3c2C(C)CC3O)CC1)c1ccc(Cl)cc1, the IC50 (second compound 0.1 µM) was 94.5 nM, the IC50 (second compound 0.316 µM) was 76.7 nM and the IC50 (second compound 1 µM) was 52.9 nM. For the same compound, the IC50 (second compound 3.16 µM) was 37.1 nM, the IC50 (second compound 10 µM) was < 9.49 nM and the viability, T/C [31] was 104%. For the same compound, the viability, T/C [32] was 97.3%, the viability, T/C [33] was 50.3% and the viability, T/C [34] was 0.31%. For the same compound, the viability, T/C (second compound 0.1 µM, first compound 0.949 µM) was 0.3%, the viability, T/C (second compound 0.1 µM, first compound 3 µM) was 0.37% and the viability, T/C [35] was 79%. It also gave a viability, T/C [36] of 74.3%, a viability, T/C [37] of 44.2% and a viability, T/C [38] of 0.31%. For the same compound, the viability, T/C (second compound 0.316 µM, first compound 0.949 µM) was 0.36%, the viability, T/C (second compound 0.316 µM, first compound 3 µM) was 0.44% and the viability, T/C [39] was 72.7%. It also gave a viability, T/C [40] of 72.2%, a viability, T/C [41] of 27% and a viability, T/C [42] of 0.41%. The viability, T/C (second compound 1 µM, first compound 0.949 µM) was 0.35%, the viability, T/C (second compound 1 µM, first compound 3 µM) was 0.37% and the viability, T/C [43] was 55.2%. It also gave a viability, T/C [44] of 58.7%, a viability, T/C [45] of 19.5% and a viability, T/C [46] of 0.33%. For the same compound, the viability, T/C (second compound 3.16 µM, first compound 0.949 µM) was 0.23%, the viability, T/C (second compound 3.16 µM, first compound 3 µM) was 0.81% and the viability, T/C [47] was 43.8%. For the same compound, the viability, T/C [48] was 43.9%, the viability, T/C [49] was 5.74% and the viability, T/C [50] was 0.5%. For the same compound, the viability, T/C (second compound 10 µM, first compound 0.949 µM) was 0.35% and the viability, T/C (second compound 10 µM, first compound 3 µM) was 0.49%.

`Cn1nccc1Nc1nccc(-c2ccn(C(CO)c3ccc(Cl)c(F)c3)c(=O)c2)n1` (stereo not given) + CC(C)NCC(C(=O)N1CCN(c2ncnc3c2C(C)CC3O)CC1)c1ccc(Cl)cc1 was tested, and the IC50 (second compound 0.1 µM) was > 10000 nM, the IC50 (second compound 0.316 µM) was > 10000 nM and the IC50 (second compound 1 µM) was 1700 nM. The IC50 (second compound 3.16 µM) was 158 nM, the IC50 (second compound 10 µM) was < 31.6 nM and the viability, T/C [1] was 104%. For the same compound, the viability, T/C [2] was 88.8%, the viability, T/C [3] was 91.8% and the viability, T/C [4] was 100%. The viability, T/C [5] was 108%, the viability, T/C [6] was 124% and the viability, T/C [7] was 82.8%. For the same compound, the viability, T/C [8] was 82.8%, the viability, T/C [9] was 77% and the viability, T/C [10] was 73.5%. It also gave a viability, T/C [11] of 75.8%, a viability, T/C [12] of 70% and a viability, T/C [13] of 68.2%. The viability, T/C [14] was 70.5%, the viability, T/C [15] was 67.6% and the viability, T/C [16] was 51.4%. For the same compound, the viability, T/C [17] was 44.8%, the viability, T/C [18] was 17.1% and the viability, T/C [19] was 47.4%. The viability, T/C [20] was 55.1%, the viability, T/C [21] was 48.8% and the viability, T/C [22] was 38.8%. The viability, T/C [23] was 19.9%, the viability, T/C [24] was 4.47% and the viability, T/C [25] was 45.9%. For the same compound, the viability, T/C [26] was 47.5%, the viability, T/C [27] was 34.2% and the viability, T/C [28] was 22.8%. The viability, T/C [29] was 6.51% and the viability, T/C [30] was 1.06%.
